Activity calls are given as the source filed them. The calls are words filed in the database; no cut-off is given here.
Legend:
Phospholipase D2 = Phospholipase D2 (Homo sapiens, UniProt O14939)
Description: Inhibition of human GST-tagged PLD2A in human HEK293 cells

Phospholipase D1 = molecular target: T1, Phospholipase D1 (Homo sapiens, UniProt Q13393)
T1 sequence (Q13393 whole entry): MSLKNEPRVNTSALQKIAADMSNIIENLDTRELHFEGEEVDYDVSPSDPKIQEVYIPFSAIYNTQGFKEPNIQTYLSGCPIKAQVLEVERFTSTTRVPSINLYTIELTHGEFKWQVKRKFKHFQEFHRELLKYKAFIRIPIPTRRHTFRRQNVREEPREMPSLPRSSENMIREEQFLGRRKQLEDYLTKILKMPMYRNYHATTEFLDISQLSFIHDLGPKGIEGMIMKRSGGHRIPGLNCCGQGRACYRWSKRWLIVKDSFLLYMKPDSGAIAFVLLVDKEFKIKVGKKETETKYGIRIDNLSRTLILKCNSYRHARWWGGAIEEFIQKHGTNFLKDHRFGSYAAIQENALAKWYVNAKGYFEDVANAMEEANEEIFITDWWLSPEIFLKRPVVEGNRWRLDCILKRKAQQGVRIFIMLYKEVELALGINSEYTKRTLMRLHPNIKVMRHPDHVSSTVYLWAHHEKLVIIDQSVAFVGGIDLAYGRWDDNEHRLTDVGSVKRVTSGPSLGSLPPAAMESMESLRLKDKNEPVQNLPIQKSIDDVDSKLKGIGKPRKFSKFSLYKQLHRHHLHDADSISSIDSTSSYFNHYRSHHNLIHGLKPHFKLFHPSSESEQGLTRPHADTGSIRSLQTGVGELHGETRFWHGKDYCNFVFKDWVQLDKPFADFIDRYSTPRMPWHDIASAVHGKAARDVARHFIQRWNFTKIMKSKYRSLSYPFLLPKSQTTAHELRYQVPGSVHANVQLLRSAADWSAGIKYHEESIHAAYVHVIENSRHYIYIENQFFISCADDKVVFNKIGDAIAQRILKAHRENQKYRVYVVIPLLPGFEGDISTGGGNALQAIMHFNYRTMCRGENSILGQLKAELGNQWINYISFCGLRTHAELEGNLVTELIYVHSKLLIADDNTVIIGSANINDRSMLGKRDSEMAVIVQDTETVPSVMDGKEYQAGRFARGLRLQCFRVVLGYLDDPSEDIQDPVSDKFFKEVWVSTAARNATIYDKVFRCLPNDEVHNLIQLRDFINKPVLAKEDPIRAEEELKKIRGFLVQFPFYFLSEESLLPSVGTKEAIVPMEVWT
Description: Inhibition of PLD1 in human calu1 cells

Homo sapiens = organism: Homo sapiens; assay: Selectivity ratio of IC50 for human PLD1 to IC50 for human GST-tagged PLD2A
[1] = molecular target: T2, Phospholipase D1 (Homo sapiens) (UniProt Q13393); type: cell-based; conditions: MDA-MB-231, 10 uM
T2 sequence (whole entry): T1 sequence (Q13393 whole entry)

Phospholipase D2, sequence (O14939 whole entry): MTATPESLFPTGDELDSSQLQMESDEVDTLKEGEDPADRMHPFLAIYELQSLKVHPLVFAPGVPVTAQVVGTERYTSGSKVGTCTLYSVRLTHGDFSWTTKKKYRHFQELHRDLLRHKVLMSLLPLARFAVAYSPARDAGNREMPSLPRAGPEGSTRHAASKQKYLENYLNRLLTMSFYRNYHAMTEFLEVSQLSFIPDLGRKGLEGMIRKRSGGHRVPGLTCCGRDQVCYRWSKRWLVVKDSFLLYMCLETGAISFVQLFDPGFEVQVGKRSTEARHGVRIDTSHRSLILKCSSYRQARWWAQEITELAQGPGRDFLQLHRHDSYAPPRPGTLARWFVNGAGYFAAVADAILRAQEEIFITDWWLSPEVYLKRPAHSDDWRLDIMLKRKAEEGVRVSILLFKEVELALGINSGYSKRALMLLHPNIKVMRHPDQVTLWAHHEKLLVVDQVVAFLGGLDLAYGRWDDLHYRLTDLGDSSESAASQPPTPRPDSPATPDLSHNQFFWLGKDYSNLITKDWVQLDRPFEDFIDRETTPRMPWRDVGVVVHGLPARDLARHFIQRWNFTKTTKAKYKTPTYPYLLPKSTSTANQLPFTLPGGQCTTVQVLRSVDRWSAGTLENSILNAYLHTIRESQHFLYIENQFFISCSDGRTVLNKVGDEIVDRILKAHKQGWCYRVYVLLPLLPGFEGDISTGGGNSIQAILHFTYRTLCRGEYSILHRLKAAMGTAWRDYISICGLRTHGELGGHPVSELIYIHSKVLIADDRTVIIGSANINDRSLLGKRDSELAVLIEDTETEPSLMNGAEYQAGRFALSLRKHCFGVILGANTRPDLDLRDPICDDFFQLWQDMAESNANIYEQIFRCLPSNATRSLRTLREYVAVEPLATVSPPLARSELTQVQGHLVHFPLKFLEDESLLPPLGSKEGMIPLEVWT

Row | Structure (SMILES) | IC50 (Phospholipase D2) | IC50 (Phospholipase D1) | Selectivity ratio (Homo sapiens) | inhibition [1]
1 | O=C(NCCN1CCC2(CC1)C(=O)NCN2c1cccc(Cl)c1)c1cnc2ccccc2c1 | 165 nM | 870 nM | 5 | –
2 | O=C(NCCN1CCC2(CC1)C(=O)NCN2c1ccc(F)cc1)c1cnc2ccccc2c1 | 40 nM | 2000 nM | 50 | –
3 | O=C(NCCN1CCC2(CC1)C(=O)NCN2c1ccc(F)c(F)c1)c1cnc2ccccc2c1 | 70 nM | 2060 nM | 30 | –
4 | O=C(NCCN1CCC2(CC1)C(=O)NCN2c1cccc(F)c1)c1ccc(F)cc1 | 6700 nM | – | – | –
5 | C[C@@H](CN1CCC2(CC1)C(=O)NCN2c1cccc(F)c1)NC(=O)c1ccc2ccccc2c1 | 60 nM | 10 nM | – | –
6 | O=C(NCCN1CCC2(CC1)C(=O)NCN2c1ccc(Cl)cc1)c1ccc2ccccc2c1 | 655 nM | 2270 nM | 3.5 | –
7 | O=C(NCCN1CCC2(CC1)C(=O)NCN2c1ccc(Br)cc1)c1ccc(F)cc1 | 8000 nM | 10000 nM | 1 | –
8 | O=C(NCCN1CCC2(CC1)C(=O)NCN2c1ccc(F)c(F)c1)c1ccc(F)cc1 | 660 nM | 5780 nM | 9 | –
9 | O=C(NCCN1CCC2(CC1)C(=O)NCN2c1ccc(Br)cc1)c1ccc2ccccc2c1 | 350 nM | 5900 nM | 17 | –
10 | O=C(NCCN1CCC2(CC1)C(=O)NCN2c1cccc(Cl)c1)c1cc2cc(F)ccc2[nH]1 | 73 nM | 250 nM | 3.4 | –
11 | O=C(NCCN1CCC2(CC1)C(=O)NCN2c1cccc(Cl)c1)c1ccc(F)cc1 | 70 nM | 3470 nM | 50 | –
12 | O=C(NCCN1CCC2(CC1)C(=O)NCN2c1ccc(F)cc1)c1cc2cc(F)ccc2[nH]1 | 30 nM | 290 nM | 9 | –
13 | O=C(NCCN1CCC2(CC1)C(=O)NCN2c1ccc(Cl)cc1)c1cnc2ccccc2c1 | 200 nM | 3500 nM | 17 | –
14 | O=C(NCCN1CCC2(CC1)C(=O)NCN2c1cccc(Cl)c1)c1ccc2ccccc2c1 | 290 nM | 1200 nM | 4 | –
15 | O=C(NCCN1CCC2(CC1)C(=O)NCN2c1ccc(F)c(F)c1)c1cc2cc(F)ccc2[nH]1 | 100 nM | 390 nM | 4 | –
16 | O=C(NCCN1CCC2(CC1)C(=O)NCN2c1ccc(Cl)cc1)c1ccc(F)cc1 | 5670 nM | 5590 nM | 1 | –
17 | O=C(NCCN1CCC2(CC1)C(=O)NCN2c1cccc(F)c1)c1cnc2ccccc2c1 | 63 nM | 2500 nM | 40 | –
18 | O=C(NCCN1CCC2(CC1)C(=O)NCN2c1ccc(F)cc1)c1ccc2ccccc2c1 | 80 nM | 1700 nM | 21 | –
19 | O=C(NCCN1CCC2(CC1)C(=O)NCN2c1ccc(Br)cc1)c1cc2cc(F)ccc2[nH]1 | 100 nM | 2660 nM | 27 | –
20 | C[C@@H](CN1CCC(n2c(=O)[nH]c3cc(Br)ccc32)CC1)NC(=O)[C@H]1C[C@@H]1c1ccccc1 | – | – | – | Active
21 | O=C(NCCN1CCC2(CC1)C(=O)NCN2c1ccc(F)cc1)c1ccc(F)cc1 | 610 nM | 14000 nM | 23 | –
22 | O=C(NCCN1CCC2(CC1)C(=O)NCN2c1cccc(F)c1)c1cc2cc(F)ccc2[nH]1 | 25 nM | 210 nM | 8 | –
23 | O=C(NCCN1CCC2(CC1)C(=O)NCN2c1ccc(Cl)cc1)c1cc2cc(F)ccc2[nH]1 | 50 nM | 335 nM | 7 | –
24 | O=C(NCCN1CCC2(CC1)C(=O)NCN2c1ccc(Br)cc1)c1cnc2ccccc2c1 | 360 nM | 2700 nM | 8 | –
